Source: patent US20220167615A1, “FUNGICIDAL COMPOSITIONS” (SYNGENTA CROP PROTECTION AG, priority 2019, published 2022)
Where two headings read alike, the source gives them in different places.

Key:
[1] = system: Puccinia recondita f. sp. tritici; assay: Puccinia recondita f. sp. tritici / wheat / leaf disc preventative (Brown rust); assay type: in vivo; settings: foliar, read-out: percent disease control compared to untreated
[2] = system: Botryotinia fuckeliana (Botrytis cinerea); assay: Botryotinia fuckeliana (Botrytis cinerea) / liquid culture (Gray mould); assay type: cell-based; settings: read-out: disease control (inhibition of growth, photometric)
[3] = system: Mycosphaerella arachidis (Cercospora arachidicola); assay: Mycosphaerella arachidis (Cercospora arachidicola) / liquid culture (early leaf spot); assay type: cell-based; settings: read-out: disease control (inhibition of growth, photometric)
[4] = system: Monographella nivalis (Microdochium nivale); assay: Monographella nivalis (Microdochium nivale) / liquid culture (foot rot cereals); assay type: cell-based; settings: read-out: disease control (inhibition of growth, photometric)
[5] = system: Glomerella lagenarium (Colletotrichum lagenarium); assay: Glomerella lagenarium (Colletotrichum lagenarium) / liquid culture (Anthracnose); assay type: cell-based; settings: Colletotrichum orbiculare, read-out: disease control (inhibition of growth, photometric)
[6] = system: Mycosphaerella graminicola (Septoria tritici); assay: Mycosphaerella graminicola (Septoria tritici) / liquid culture (Septoria blotch); assay type: cell-based; settings: Zymoseptoria tritici, read-out: disease control (inhibition of growth, photometric)
Phakopsora pachyrhizi = Phakopsora pachyrhizi / soybean / leaf disc preventative (Asian soybean rust); assay type: in vivo; settings: foliar, read-out: percent disease control compared to untreated
[7] = system: Phaeosphaeria nodorum (Septoria nodorum); assay: Phaeosphaeria nodorum (Septoria nodorum) / wheat / leaf disc preventative (Glume blotch); assay type: in vivo; settings: Parastagonospora nodorum, foliar, read-out: percent disease control compared to untreated
[8] = system: Magnaporthe grisea (Pyricularia oryzae); assay: whole plant or invertebrate; assay type: in vivo; settings: foliar, read-out: percent disease control compared to untreated
[9] = 200 ppm in the applied formulation, wheat leaf segments cv. Kanzler, inoculated 1 day after application, assessed 7-9 days after application
[10] = 20 ppm in the applied formulation, Vogels broth, 24° C., 3-4 days after application, vs untreated control
[11] = 20 ppm in the applied formulation, PDB, 24° C., 4-5 days after application, vs untreated control
[12] = 20 ppm in the applied formulation, PDB, 24° C., 3 to 4 days after application, vs untreated control
[13] = 20 ppm in the applied formulation, PDB, 24° C., 4 to 5 days after application, vs untreated control
[14] = 200 ppm in the applied formulation, soybean leaf disks, inoculated one day after application, assessed 12 to 14 days after application

COc1ccnc(C(=O)N[C@@H](C)C(=O)OC(C)C2(c3ccc(Cl)cc3)CCC2)c1O (stereo partly drawn) [X.01, 1-[1-(4-chlorophenyl)cyclobutyl]ethyl(2S)-2-[(3-hydroxy-4-methoxy-pyridine-2-carbonyl)amino]propanoate]
≥ 80%: pest or weed control at 200 ppm [1, 9] | inhibition at 20 ppm [2, 10] | inhibition at 20 ppm [3, 11] | inhibition at 20 ppm [4, 11] | inhibition at 20 ppm [5, 12] | inhibition at 20 ppm [6, 13]

COc1ccnc(C(=O)N[C@@H](C)C(=O)OC(C)C(C)n2ccc3c(Br)ccc(F)c32)c1O (stereo partly drawn) [X.02, [2-(4-bromo-7-fluoro-indol-1-yl)-1-methyl-propyl] (2S)-2-[(3-hydroxy-4-methoxy-pyridine-2-carbonyl)amino]propanoate]
≥ 80%: pest or weed control at 200 ppm [1, 9] | inhibition at 20 ppm [2, 10] | inhibition at 20 ppm [3, 11] | inhibition at 20 ppm [4, 11] | inhibition at 20 ppm [5, 12] | pest or weed control at 200 ppm (Phakopsora pachyrhizi; [14]) | inhibition at 20 ppm [6, 13]

COc1ccnc(C(=O)N[C@@H](C)C(=O)OC(C)C(C)c2ncc(Cl)cc2Cl)c1O (stereo partly drawn) [X.03, [2-(3,5-dichloro-2-pyridyl)-1-methyl-propyl] (2S)-2-[(3-hydroxy-4-methoxy-pyridine-2-carbonyl)amino]propanoate]
≥ 80%: pest or weed control at 200 ppm [1] | inhibition at 20 ppm [2] | inhibition at 20 ppm [3] | inhibition at 20 ppm [4] | pest or weed control at 200 ppm [7] | inhibition at 20 ppm [5] | pest or weed control at 200 ppm (Phakopsora pachyrhizi) | inhibition at 20 ppm [6]

COc1ccnc(C(=O)N[C@@H](C)C(=O)OC(C)C(C)c2ncc(Cl)cc2Cl)c1OCOC(=O)C(C)C (stereo partly drawn) [X.06, [2-[[(1S)-2-[2-(3,5-dichloro-2-pyridyl)-1-methyl-propoxy]-1-methyl-2-oxo-ethyl]carbamoyl]-4-methoxy-3-pyridyl]oxymethyl 2-methylpropanoate]
≥ 80%: pest or weed control at 200 ppm [1, 9] | inhibition at 20 ppm [3, 11] | inhibition at 20 ppm [4, 11] | pest or weed control at 200 ppm (Phakopsora pachyrhizi; [14]) | inhibition at 20 ppm [6, 13]

COc1ccnc(C(=O)N[C@@H](C)C(=O)OC(C)C(C)(C)c2ccc(Br)cc2)c1O (stereo partly drawn) [X.08, [2-(4-bromophenyl)-1,2-dimethyl-propyl] (2S)-2-[(3-hydroxy-4-methoxy-pyridine-2-carbonyl)amino]propanoate]
≥ 80%: pest or weed control at 200 ppm [1, 9] | inhibition at 20 ppm [2, 10] | inhibition at 20 ppm [3, 11] | pest or weed control at 200 ppm [8] | inhibition at 20 ppm [4, 11] | inhibition at 20 ppm [5, 12] | inhibition at 20 ppm [6, 13]

COc1ccnc(C(=O)N[C@@H](C)C(=O)OC(C)C2(c3ccccc3)CCCCC2)c1O (stereo partly drawn) [X.09, 1-(1-phenylcyclohexyl)ethyl (2S)-2-[(3-hydroxy-4-methoxy-pyridine-2-carbonyl)amino]propanoate]
≥ 80%: pest or weed control at 200 ppm [1, 9] | inhibition at 20 ppm [2, 10] | inhibition at 20 ppm [3, 11] | pest or weed control at 200 ppm [8] | inhibition at 20 ppm [4, 11] | inhibition at 20 ppm [5, 12] | inhibition at 20 ppm [6, 13]

COc1ccnc(C(=O)N[C@@H](C)C(=O)OC(C)C(C)c2ccc3ccccc3n2)c1O (stereo partly drawn) [X.10, [1-methyl-2-(2-quinolyl)propyl] (2S)-2-[(3-hydroxy-4-methoxy-pyridine-2-carbonyl)amino]propanoate]
≥ 80%: pest or weed control at 200 ppm [1, 9] | inhibition at 20 ppm [2, 10] | inhibition at 20 ppm [4, 11] | inhibition at 20 ppm [5, 12] | inhibition at 20 ppm [6, 13]

COc1ccnc(C(=O)N[C@@H](C)C(=O)OC(C)C(C)n2ccc3cccc(Br)c32)c1O (stereo partly drawn) [X.11, [2-(7-bromoindol-1-yl)-1-methyl-propyl] (2S)-2-[(3-hydroxy-4-methoxy-pyridine-2-carbonyl)amino]propanoate]
≥ 80%: pest or weed control at 200 ppm [1, 9] | inhibition at 20 ppm [3, 11] | inhibition at 20 ppm [4, 11] | inhibition at 20 ppm [5, 12] | pest or weed control at 200 ppm (Phakopsora pachyrhizi; [14]) | inhibition at 20 ppm [6, 13]

COc1ccnc(C(=O)N[C@@H](C)C(=O)OC(C)C(C)n2ccc3ccc(C(F)(F)F)cc32)c1O (stereo partly drawn) [X.12, [1-methyl-2-[6-(trifluoromethyl)indol-1-yl]propyl] (2S)-2-[(3-hydroxy-4-methoxy-pyridine-2-carbonyl)amino]propanoate]
≥ 80%: pest or weed control at 200 ppm [1, 9] | inhibition at 20 ppm [2, 10] | inhibition at 20 ppm [3, 11] | pest or weed control at 200 ppm [8] | inhibition at 20 ppm [4, 11] | inhibition at 20 ppm [5, 12] | inhibition at 20 ppm [6, 13]

COc1ccnc(C(=O)N[C@@H](C)C(=O)OC(C)C(C)n2ncc3ccccc32)c1O (stereo partly drawn) [X.13, (2-indazol-1-yl-1-methyl-propyl) (2S)-2-[(3-hydroxy-4-methoxy-pyridine-2-carbonyl)amino]propanoate]
≥ 80%: inhibition at 20 ppm [6, 13]

COc1ccnc(C(=O)N[C@@H](C)C(=O)OC(C)C(C)c2ccc(Cl)s2)c1O (stereo partly drawn) [X.14, [2-(5-chloro-2-thienyl)-1-methyl-propyl] (2S)-2-[(3-hydroxy-4-methoxy-pyridine-2-carbonyl)amino]propanoate]
≥ 80%: pest or weed control at 200 ppm [1, 9] | inhibition at 20 ppm [2, 10] | inhibition at 20 ppm [3, 11] | inhibition at 20 ppm [4, 11] | inhibition at 20 ppm [5, 12] | inhibition at 20 ppm [6, 13]

COc1ccnc(C(=O)N[C@@H](C)C(=O)OC(C)C(C)n2ccc3c(Cl)ccc(Cl)c32)c1OC(C)=O (stereo partly drawn) [X.15, [2-(4,7-dichloroindol-1-yl)-1-methyl-propyl] (2S)-2-[(3-acetoxy-4-methoxy-pyridine-2-carbonyl)amino]propanoate]
≥ 80%: pest or weed control at 200 ppm [1, 9] | inhibition at 20 ppm [3, 11] | inhibition at 20 ppm [4, 11] | inhibition at 20 ppm [5, 12] | inhibition at 20 ppm [6, 13]

COc1ccnc(C(=O)N[C@@H](C)C(=O)OC(C)C(C)n2ccc3c(F)ccc(Br)c32)c1OC(C)=O (stereo partly drawn) [X.16, [2-(7-bromo-4-fluoro-indol-1-yl)-1-methyl-propyl] (2S)-2-[(3-acetoxy-4-methoxy-pyridine-2-carbonyl)amino]propanoate]
≥ 80%: pest or weed control at 200 ppm [1, 9] | inhibition at 20 ppm [3, 11] | inhibition at 20 ppm [4, 11] | inhibition at 20 ppm [5, 12] | pest or weed control at 200 ppm (Phakopsora pachyrhizi; [14]) | inhibition at 20 ppm [6, 13]
